Where “and” joins values, the source holds several entries; their conditions need not be identical. Identical values can stand only once. Toxic doses and inconclusive results are not listed.
Tested on: L1210 leukemia ip in BDF1 mice, survival T/C
Experiment: NCI In Vivo Anticancer Drug Screen. Data for tumor model L1210 Leukemia (intraperitoneal) in B6D2F1 (BDF1) mice
Details: endpoint: mean survival time, higher = longer survival
Procedure, shortened: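 Antitumor effect is assessed in tumor-bearing animals. Survival in the compound arm is compared with a vehicle-dosed control arm and expressed as their quotient.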

[1] = dose: 100.0 mg/kg/injection, schedule: Q01DX009 (ip), vehicle: Klucel (hydroxypropylcellulose) (HPC)
[2] = dose: 200.0 mg/kg/injection, schedule: Q01DX009 (ip), vehicle: Klucel (hydroxypropylcellulose) (HPC)

`COC(=O)c1cc(C)cc(N(c2ccccc2[N+](=O)[O-])S(=O)(=O)c2ccc(C)cc2)c1C` was tested, and the T/C (dose: 100.0 mg/kg/injection, schedule: Q01DX001 (ip), vehicle: carboxymethylcellulose (CMC)) was 96 % of control, the T/C (dose: 200.0 mg/kg/injection, schedule: Q01DX001 (ip), vehicle: carboxymethylcellulose (CMC)) was 104 % of control and the T/C (dose: 400.0 mg/kg/injection, schedule: Q01DX001 (ip), vehicle: carboxymethylcellulose (CMC)) was 98 % of control.

`O=C(Nc1cccc(C(=O)Nc2ccc(C3=NCCN3)cc2)c1)c1ccc(C2=NCCN2)cc1` was tested, and the T/C (dose: 15.0 mg/kg/injection, schedule: Q01DX Z (ip), vehicle: carboxymethylcellulose (CMC)) was 96 % of control, the T/C (dose: 15.0 mg/kg/injection, schedule: Q01DX Z (sc), vehicle: saline) was 120 % of control and the T/C (dose: 30.0 mg/kg/injection, schedule: Q01DX Z (ip), vehicle: carboxymethylcellulose (CMC)) was 120 % of control. The T/C (dose: 60.0 mg/kg/injection, schedule: Q01DX Z (sc), vehicle: saline) was 109 % of control, the T/C (dose: 62.5 mg/kg/injection, schedule: Q01DX010 (oral), vehicle: saline) was 104 % of control and the T/C (dose: 88.0 mg/kg/injection, schedule: Q01DX007 (oral), vehicle: carboxymethylcellulose (CMC)) was 101 % of control. The T/C (dose: 120.0 mg/kg/injection, schedule: Q01DX Z (ip), vehicle: carboxymethylcellulose (CMC)) was 185 % of control, the T/C (dose: 120.0 mg/kg/injection, schedule: Q01DX Z (sc), vehicle: saline) was 230 % of control and the T/C (dose: 125.0 mg/kg/injection, schedule: Q01DX010 (oral), vehicle: saline) was 104 % of control. The T/C (dose: 175.0 mg/kg/injection, schedule: Q01DX007 (oral), vehicle: carboxymethylcellulose (CMC)) was 97 % of control, the T/C (dose: 250.0 mg/kg/injection, schedule: Q01DX010 (oral), vehicle: saline) was 103 % of control and the T/C (dose: 350.0 mg/kg/injection, schedule: Q01DX007 (oral), vehicle: carboxymethylcellulose (CMC)) was 105 % of control. For the same compound, the T/C (dose: 500.0 mg/kg/injection, schedule: Q01DX010 (oral), vehicle: saline) was 106 % of control and the T/C (dose: 700.0 mg/kg/injection, schedule: Q01DX007 (oral), vehicle: carboxymethylcellulose (CMC)) was 105 % of control.

For `O=c1[nH]c(=O)c2cccnc2[nH]1`, the T/C (dose: 3.12 mg/kg/injection, schedule: Q01DX009 (ip), vehicle: saline) was 109 % of control, the T/C (dose: 6.25 mg/kg/injection, schedule: Q01DX009 (ip), vehicle: saline) was 107 % of control and the T/C (dose: 12.5 mg/kg/injection, schedule: Q01DX009 (ip), vehicle: saline) was 115 % of control. For the same compound, the T/C (dose: 25.0 mg/kg/injection, schedule: Q01DX001 (ip), vehicle: saline) was 100 % of control, the T/C (dose: 25.0 mg/kg/injection, schedule: Q01DX009 (ip), vehicle: saline) was 108 % of control and the T/C (dose: 50.0 mg/kg/injection, schedule: Q01DX001 (ip), vehicle: saline) was 105 % of control. The T/C (dose: 50.0 mg/kg/injection, schedule: Q01DX009 (ip), vehicle: saline) was 100 % of control, the T/C (dose: 100.0 mg/kg/injection, schedule: Q01DX001 (ip), vehicle: saline) was 98 % of control and 100 % of control and the T/C (dose: 100.0 mg/kg/injection, schedule: Q01DX009 (ip), vehicle: saline) was 94 % of control. The T/C (dose: 200.0 mg/kg/injection, schedule: Q01DX001 (ip), vehicle: saline) was 98 % of control and 100 % of control.

For `CC(=O)Nc1nnc(Sc2n[nH]c(=O)[nH]c2=O)s1`, the T/C (dose: 10.0 mg/kg/injection, schedule: Q01DX001 (ip), vehicle: saline) was 98 % of control.

In the case of `CCc1ccccc1NC(=O)Nc1ccc(C(=O)O)cc1`, the T/C [1] is reported as 98 % of control and the T/C [2] is reported as 94 % of control.

`O=C(NC(c1ccccc1)C(Cl)(Cl)Cl)c1ccccc1` (centres undefined) was tested, and the T/C (dose: 50.0 mg/kg/injection, schedule: Q01DX009 (ip), vehicle: Klucel (hydroxypropylcellulose) (HPC)) was 97 % of control, the T/C [1] was 97 % of control and the T/C [2] was 97 % of control.

In the case of `CC[PH+]1c2ccccc2-c2ccccc21.CC[PH+]1c2ccccc2-c2ccccc21.CC[PH+]1c2ccccc2-c2ccccc21.[Br][Ni][Br]`, the T/C (dose: 12.5 mg/kg/injection, schedule: Q04DX003 (ip), vehicle: saline with Tween-80) is reported as 98 % of control, the T/C (dose: 25.0 mg/kg/injection, schedule: Q04DX003 (ip), vehicle: saline with Tween-80) is reported as 98 % of control and the T/C (dose: 50.0 mg/kg/injection, schedule: Q04DX003 (ip), vehicle: saline with Tween-80) is reported as 102 % of control.

For `CCCCOC(=O)c1ccc(OC(=O)NC)cc1`, the T/C (dose: 100.0 mg/kg/injection, schedule: Q01DX009 (ip), vehicle: saline with Tween-80) was 107 % of control, the T/C (dose: 200.0 mg/kg/injection, schedule: Q01DX009 (ip), vehicle: saline with Tween-80) was 101 % of control and the T/C (dose: 400.0 mg/kg/injection, schedule: Q01DX009 (ip), vehicle: saline with Tween-80) was 112 % of control.

In the case of `CCC[CH2][Sn]1([CH2]CCC)[O]C(=O)c2ccc(C(=O)O)cc2C(=O)[O]1`, the T/C (dose: 5.0 mg/kg/injection, schedule: Q01DX001 (ip), vehicle: saline) is reported as 105 % of control.

`O=C(CC(=O)c1ccccc1)c1ccccc1.O=C(CC(=O)c1ccccc1)c1ccccc1.O=C(CC(=O)c1ccccc1)c1ccccc1.[Cr]` was tested, and the T/C (dose: 100.0 mg/kg/injection, schedule: Q04DX002 (ip), vehicle: Klucel (hydroxypropylcellulose) (HPC)) was 93 % of control, the T/C (dose: 200.0 mg/kg/injection, schedule: Q04DX002 (ip), vehicle: Klucel (hydroxypropylcellulose) (HPC)) was 101 % of control and the T/C (dose: 400.0 mg/kg/injection, schedule: Q04DX002 (ip), vehicle: Klucel (hydroxypropylcellulose) (HPC)) was 104 % of control.

In the case of `CCCCCCCCCCCCCCCCCCNC(=O)Nc1cccc(C)c1C`, the T/C [1] is reported as 92 % of control, the T/C (dose: 100.0 mg/kg/injection, schedule: Q04DX003 (ip), vehicle: Klucel (hydroxypropylcellulose) (HPC)) is reported as 87 % of control and the T/C [2] is reported as 89 % of control. The T/C (dose: 200.0 mg/kg/injection, schedule: Q04DX003 (ip), vehicle: Klucel (hydroxypropylcellulose) (HPC)) was 92 % of control, the T/C (dose: 400.0 mg/kg/injection, schedule: Q01DX009 (ip), vehicle: Klucel (hydroxypropylcellulose) (HPC)) was 94 % of control and the T/C (dose: 400.0 mg/kg/injection, schedule: Q04DX003 (ip), vehicle: Klucel (hydroxypropylcellulose) (HPC)) was 88 % of control.
